From publication PMC10877564, “Activity of Gut-Derived Nisin-like Lantibiotics against Human Gut Pathogens and Commensals” (ACS Chemical Biology, 2024)
Positions of bridges follow the written chain, without caps; N, C: chain ends. Non-standard residues stand in square brackets, D forms with d. No end group written: not given here. Abu = CC[C@H](N)C(=O)O; Dhb = C/C=C(\N)C(=O)O; Dha = C=C(N)C(=O)O

What was measured:
Assay in all cases: MIC assay, anaerobic broth dilution
Settings in all cases: BHIS, 37 °C, 48 h, 3-fold serial dilution
[1] = test system: D. formicigenerans MSK.17.61; type: cell-based, Dorea formicigenerans
Excerpt: (§1) Antibiotic treatment may result in collateral damage to commensal bacteria in the human microbiome, leading to dysbiosis and susceptibility to various diseases.[44] How lantibiotics impact Gram-positive commensals from the human gut has remained unclear. Therefore, we performed antimicrobial activity tests of these lantibiotics against selected Gram-positive human gut commensals, most of which belong to the Lachnospiraceae family, one of the most abundant bacterial families in the human gut.[27] In general, human gut commensals were more susceptible to the set of investigated lantibiotics compared to pathogens (Figure 3).
(§2) Elution Buffer (4 M guanidine hydrochloride, 20 mM Tris HCl, pH 7.5 at 25 °C, 100 mM NaCl, 1 M imidazole). Peptides eluted from the Ni resin were concentrated and desalted using 3 kDa Amicon filters (Millipore). For leader peptide removal, the peptide (1:20 trypsin to peptide) was incubated with the trypsin protease in 50 mM Tris-HCl, pH 8 overnight at 37 °C. Lastly, the core peptides were further purified with HPLC using an Agilent 1200 instrument (Agilent) as specified in general methods. About 1.5 mg recombinant peptide was obtained after HPLC purification per […]
(§3) All MIC assays were performed under anaerobic condition. […] Lantibiotics were dissolved in DPBS, and concentrations were determined by BCA assay (Pierce) according to the manufacturer’s protocol. […]

[2] = test system: F. fissicatena MSK.9.3; type: cell-based, Faecalicatena fissicatena
Excerpt: as §1
as §2, with “specified” for “specified in general methods. About 1.5 mg recombinant peptide was obtained after HPLC purification per”
in general methods. […]
Isolation of human gut commensal bacteria […]
as §3

[3] = test system: E. faecium ATCC700221 (VRE); type: cell-based, Enterococcus faecium
Excerpt: (§4) Next, we set out to test the antimicrobial activities of these purified lantibiotics against a panel of Gram-positive bacteria that are representatives of some of the most prevalent human pathogens: VRE, Methicillin-resistant S. aureus USA300 (MRSA), Methicillin-resistant Staphylococcus epidermidis SK135 (MRSE), Listeria monocytogenes 10403S, and Clostridioides difficile VPI10463. We examined the growth of bacteria in a 96-well plate under a concentration gradient of lantibiotics under anaerobic conditions (Figure S2B). […]
(§5) For broth cultures, isolates were grown in pre-reduced BHI supplemented with 5 g/L yeast extract (Difco, BD) and 0.1% L-cysteine under anaerobic condition.
(§6) Minimal Inhibition Concentration (MIC) assay
(§7) All MIC assays were performed under anaerobic condition. Stationary bacterial culture in BHIS (BHI supplemented with 5 g/L yeast extract and 0.1% L-cysteine) were inoculated 1:100 to wells containing 200 µL BHIS in U-bottom 96-well plates. Lantibiotics were dissolved in DPBS, and concentrations were determined by BCA assay (Pierce) according to the manufacturer’s protocol.
(§8) Lantibiotic stock solutions were added to wells to reach desired final concentration, with 3-fold serial dilution across rows to create concentration gradients. Bacteria-inoculated wells without lantibiotics served as control. […]

[4] = test system: L. monocytogenes 10403s; type: cell-based, Listeria monocytogenes
Excerpt: as §4, §5, §6, §7, §8

[5] = test system: B. luti MSK.20.18; type: cell-based, Blautia luti
Excerpt: as §1, with “3). […]” for “3).”
Isolation of human gut commensal bacteria
Isolation and growth of commensal bacteria was done as previously reported.5 Briefly, fresh donor fecal samples were transferred into an anaerobic chamber (Coy Labs) within 1 h of collection. The anaerobic chamber was maintained using a gas mix consisting of 5% hydrogen, 5% carbon dioxide and 90% nitrogen, and hydrogen was maintained at ~3.0% using an anaerobic gas infuser. […]
as §3

Question: For “nisin A (I[Dhb]AI[Dha]LC[Abu]PGCK[Abu]GALMGCNMK[Abu]A[Abu]CHCSIHV[Dha]K; thioether 8-11, 13-19, 23-26, 25-28, 3-7; UniProt P13068 24-57, looked up) [prototypical class I lantibiotic produced by L. lactis, food preservative; commercial nisin A]”, which “nisin A MIC” value [1] is on record?
Answer: 0.0110 µM

Question: And the “nisin A MIC” value [2]?
Answer: 0.0329 µM

Question: And the “nisin A MIC” value [3]?
Answer: 1.48 µM

Question: And the “nisin A MIC” value [4]?
Answer: 2.67 µM

Question: What about the “nisin A MIC” value [5] of the same substance?
Answer: 0.0329 µM
